Results from patent US11286268B1, “EIF4E-inhibiting compounds and methods” (EFFECTOR THERAPEUTICS, INC., priority 2019, dated 2022).

Target: recombinant eIF4E (Homo sapiens (Human), UniProt P06730)
Assay: Fluorescence polarization competition assay for eIF4E binding potency
Conditions: inhibition of eIF4E/EDA-m7GDP-ATTO-550 binding; calculated IC50 values, Table 4B; read-out: IC50
How it was run: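 IC50 derived from fluorescence polarization over an 8-point, 3-fold compound series after 30 min room-temperature equilibration in the dark. Mix: eIF4E 75 nM pre-bound 5 min to 20 nM EDA-m^7GDP-ATTO-550; buffer 20 mM Tris pH 7.5, 100 mM NaCl, 1 mM DTT, 0.02% Tween-20; DMSO 1%.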

recombinant eIF4E, sequence (P06730 whole entry): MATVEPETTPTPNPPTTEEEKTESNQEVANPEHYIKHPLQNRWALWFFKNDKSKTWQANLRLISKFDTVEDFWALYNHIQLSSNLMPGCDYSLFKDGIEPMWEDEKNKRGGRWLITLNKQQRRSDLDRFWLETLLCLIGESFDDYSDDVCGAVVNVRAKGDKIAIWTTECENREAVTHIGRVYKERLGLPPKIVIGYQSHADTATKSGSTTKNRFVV

Row | IC50 [nM] | Structure (SMILES)
1 | 7.29 | Cc1nc2cnc(N(C)C3CCN([C@H]4C[C@H](F)C4)CC3)c(C#N)c2c(=O)n1CC#Cc1ccc(Cl)cc1-c1ccnc2c(C(=O)NS(=O)(=O)c3ccccn3)csc12 [compound 1793]
2 | 9.28 | Cc1nc2cnc(N(C)C3CCN([C@H]4C[C@H](F)C4)CC3)c(C#N)c2c(=O)n1CC#Cc1ccc(Cl)cc1-c1ccnc2c(C(=O)NS(=O)(=O)c3cccnc3)csc12 [compound 1794]
3 | 8.96 | CCN(c1ncc2nc(C)n(CC#Cc3ccc(Cl)cc3-c3ccnc4c(C(=O)O)csc34)c(=O)c2c1C#N)C1CCN([C@H]2C[C@H](F)C2)CC1 [compound 1795]
4 | 10.4 | CCS(=O)(=O)NC(=O)c1csc2c(-c3cc(Cl)ccc3C#CCn3c(C)nc4cnc(N(C)C5CCN(C6CC(F)(F)C6)CC5)c(C#N)c4c3=O)ccnc12 [compound 1807]
5 | 5.4 | Cc1nc2cnc(N(C)C3CCN(C4CC(F)(F)C4)CC3)c(C#N)c2c(=O)n1CC#Cc1ccc(Cl)cc1-c1ccnc2c(C(=O)NS(=O)(=O)C(C)C)csc12 [compound 1808]
6 | 7.57 | Cc1nc2cnc(N(C)C3CCN(C4CC(F)(F)C4)CC3)c(C#N)c2c(=O)n1CC#Cc1ccc(Cl)cc1-c1ccnc2c(C(=O)NS(=O)(=O)C3CC3)csc12 [compound 1809]
7 | 12.9 | Cc1nc2cnc(N(C)C3CCN(C4CC(F)(F)C4)CC3)c(C#N)c2c(=O)n1CC#Cc1ccc(Cl)cc1-c1ccnc2c(C(=O)NS(=O)(=O)C3CCC3)csc12 [compound 1810]
8 | 12.7 | Cc1nc2cnc(N(C)C3CCN(C4CC(F)(F)C4)CC3)c(C#N)c2c(=O)n1CC#Cc1ccc(Cl)cc1-c1ccnc2c(C(=O)NS(=O)(=O)C3COC3)csc12 [compound 1811]
9 | 18.4 | Cc1nc2cnc(N(C)C3CCN(C4CC(F)(F)C4)CC3)c(C#N)c2c(=O)n1CC#Cc1ccc(Cl)cc1-c1ccnc2c(C(=O)NS(=O)(=O)C(C)(C)C)csc12 [compound 1812]
10 | 25.8 | Cc1nc2cnc(N(C)C3CCN(C4CC(F)(F)C4)CC3)c(C#N)c2c(=O)n1CC#Cc1ccc(Cl)cc1-c1ccnc2c(C(=O)NS(=O)(=O)CF)csc12 [compound 1817]
11 | 13 | Cc1nc2cnc(N(C)C3CCN(C4CC(F)(F)C4)CC3)c(C#N)c2c(=O)n1CC#Cc1ccc(Cl)cc1-c1ccnc2c(C(=O)NS(=O)(=O)C(F)(F)F)csc12 [compound 1818]
12 | 4.4 | Cc1nc2cnc(N(C)C3CCN(C4CC(F)(F)C4)CC3)c(C#N)c2c(=O)n1CC#Cc1ccc(Cl)cc1-c1ccnc2c(C(=O)NS(=O)(=O)CC(F)F)csc12 [compound 1819]
13 | 17.1 | Cc1nc2cnc(N(C)C3CCN(C4CC(F)(F)C4)CC3)c(C#N)c2c(=O)n1CC#Cc1ccc(Cl)cc1-c1ccnc2c(C(=O)NS(=O)(=O)CC#N)csc12 [compound 1825]
14 | 18.4 | Cc1nc2cnc(N(C)C3CCN(C4CC(F)(F)C4)CC3)c(C#N)c2c(=O)n1CC#Cc1ccc(Cl)cc1-c1ccnc2c(C(=O)NS(=O)(=O)CCC#N)csc12 [compound 1826]
15 | 14.8 | Cc1nc2cnc(N(C)C3CCN(C4CC(F)(F)C4)CC3)c(C#N)c2c(=O)n1CC#Cc1ccc(Cl)cc1-c1ccnc2c(C(=O)NS(=O)(=O)CC(C)(C)C#N)csc12 [compound 1827]
16 | 6.27 | Cc1nc2cnc(N(C)C3CCN(C4CC(F)(F)C4)CC3)c(C#N)c2c(=O)n1CC#Cc1ccc(Cl)cc1-c1ccnc2c(C(=O)NS(=O)(=O)c3ccncc3)csc12 [compound 1829]
17 | 8.06 | Cc1nc2cnc(N(C)C3CCN(C4CC(F)(F)C4)CC3)c(C#N)c2c(=O)n1CC#Cc1ccc(Cl)cc1-c1ccnc2c(C(=O)NS(=O)(=O)c3ccccn3)csc12 [compound 1830]
18 | 5 | Cc1nc2cnc(N(C)C3CCN(C4CC(F)(F)C4)CC3)c(C#N)c2c(=O)n1CC#Cc1ccc(Cl)cc1-c1ccnc2c(C(=O)NS(=O)(=O)c3cccnc3)csc12 [compound 1831]
19 | 20.5 | Cc1nc2cnc(N(C)C3CCN(C4CC(F)(F)C4)CC3)c(C#N)c2c(=O)n1CC#Cc1ccc(Cl)cc1-c1ccnc2c(C(=O)NS(=O)(=O)Cc3ccccn3)csc12 [compound 1832]
